Reference: patent US20250134794A1, “BIOACTIVE WALNUT PEPTIDES AND COMPOSITIONS FOR TOPICAL TREATMENT OF SKIN” (L'OREAL, priority 2023, published 2025)
Where no end group is shown, it is not given here.

Columns and labels:
Assay type in all cases: cell-based
[1] = test system: Adult Dermal Human Fibroblasts; experiment: Autophagic vacuoles in aged fibroblasts (Autophagy Assay Kit); design: key: “↑” indicates and increase; “↓” indicates a decrease; “↔” indicates no change; conditions: 7 days
Procedure: Adult Dermal Human Fibroblasts (Lot 2485, Passage 5, Cell Applications) were expanded and seeded into a 12-well glass bottom plate at a density of 10,000 cells/well. Cells were grown in Eagle's Minimal Essential Medium (EMEM) supplemented with Fetal Bovine Serum (FBS) and Penicillin-Streptomycin. Cells attached overnight and then culture media was aspirated and replaced with media containing either 100 uM or 250 uM of Peptide I, Peptide II, or Peptide III. Cells were cultured for 7 days with treatment with renewal of treatment medium every other day with the exception of weekends. On day 7, cells were stained and imaged for presence of autophagic vacuoles following the protocol in the Autophagy Assay Kit (ab139484, Abcam). The images were compared to determine whether the number of autophagic vacuoles increased, decreased, or remained unchanged. The results are reported below, in Table 4, where “↑” indicates and increase, “↓” indicates a decrease, and “↔” indicates no change.

[2] = test system: hepatocyte growth factor (HGF); experiment: Hepatocyte growth factor generated by reconstructed human epidermis (LEGENDplex Human Growth Factor Panel); conditions: 250 μM, 7 days, control = 1.00
Procedure: (§1) Reconstructed human epidermis (RHE) (EPISKIN/S/13, Episkin) was received and samples were prepared for use. Upon arrival, inserts containing the RHE were removed from the multi-plate and placed in a 12-well plate containing maintenance medium. Tissue serving as untreated control were placed in regular maintenance medium; treatment groups were placed in maintenance medium containing 250 uM of Peptide I, II, or III alone or in combination. Medium was aspirated and replaced every other day with the exception of weekends. RHE was cultured at air-liquid interface at 37C, 5% CO2 and saturated humidity for 7 days. Media was collected at the end of the culture period. Growth factors were quantified by running a LEGENDplex Human Growth Factor Panel (Catalogue #740809, Biolegend. Protein in the media supernatant was also quantified using the Pierce BCA Protein Assay Kit (Catalogue #741061, ThermoFisher). Microsoft Excel and GraphPad Prism were used for additional analysis and data presentation. The amounts of epidermal growth factor (EGF), hepatocyte growth factor (HGF), and transforming growth factor alpha (TGFa) generated by the RHE are shown below in Table 2 and graphically shown in FIG. 2(a) (for EGF) and FIG. 2(b) (for HGF), and FIG. 2(c) (for TGFa).

[3] = test system: Keratinocyte stem cells; experiment: Holoclone count of keratinocyte stem cells; conditions: 96 hours, control 24.80 ± 6.14
Procedure: Keratinocyte stem cells (Lot KSC870, Passage 2, Bioalternatives) were seeded in 96-well plates and cultured in Keratinocyte-SFM supplemented with Epidermal Growth Factor and Pituitary Extract. After 4 hours, media was replaced with that containing Peptide II or Peptide III, alone or in combination. Cells were incubated for 96 hours with treatment renewal after 24 hours. After 96 hours, the medium was removed, and cells were fixed with methanol at −20C. Cells were then stained for 10 minutes with a Papanicolaou solution and imaged. The number of holoclone clones were counted. Data was analyzed and plotted using GraphPad Prism. The holocolone count relative to control (normalized) is shown below in Table 3 for different concentrations of peptide II, Peptide III, and combinations of Peptide II and Peptide III.

[4] = test system: Interleukin 6 (IL-6); experiment: Interleukin-6 released from Adult Dermal Human Fibroblasts (LEGENDplex Human Inflammation Panel); conditions: 4 days treatment, concentration not given (100 uM or 250 uM)
Procedure: (§2) Adult Dermal Human Fibroblasts (Lot 2485, Passage 5, Cell Applications) were expanded and seeded into a 48-well plate at a density of 5,000 cells/well. Cells were grown in Eagle's Minimal Essential Medium (EMEM) supplemented with Fetal Bovine Serum (FBS) and Penicillin-Streptomycin. Cells attached overnight and then culture media was aspirated and replaced with media containing either 100 uM or 250 uM of Peptide I, Peptide II, or Peptide III. Cells were cultured for […] with treatment with renewal of treatment medium every other day with the exception of weekends. Media was collected at the end of the culture period. Inflammatory cytokines were quantified by running a LEGENDplex Human Inflammation Panel 1 13-plex (Catalogue #740809, Biolegend. Protein in the media supernatant was also quantified using the Pierce BCA Protein Assay Kit (Catalogue #23225, ThermoFisher). Microsoft Excel and GraphPad Prism were used for additional analysis and data presentation. The amounts of Interleukin 6 (IL-6) and Interleukin 8 (IL-8) released from the Adult Dermal Human Fibroblasts are shown below in Table 1 and graphically depicted in FIG. 1(a) (for IL-6) and FIG. 1(b) (for IL-8).

[5] = test system: epidermal growth factor (EGF); experiment: Epidermal growth factor generated by reconstructed human epidermis (LEGENDplex Human Growth Factor Panel); conditions: 250 μM, 7 days, control = 1.00
Procedure: as §1

[6] = test system: Interleukin 8 (IL-8); experiment: Interleukin-8 released from Adult Dermal Human Fibroblasts (LEGENDplex Human Inflammation Panel); conditions: 4 days treatment, concentration not given (100 uM or 250 uM)
Procedure: as §2

[7] = test system: Adult Dermal Human Fibroblasts; experiment: Mitochondrial activity in aged fibroblasts (TMRE-Mitochondrial Membrane Potential Assay Kit); conditions: 250 μM, 7 days, TMRE stain; control = 1.00
Procedure: Adult Dermal Human Fibroblasts (Lot 2485, Passage 5, Cell Applications) were expanded and seeded into a 12-well glass bottom plate at a density of 10,000 cells/well. Cells were grown in Eagle's Minimal Essential Medium (EMEM) supplemented with Fetal Bovine Serum (FBS) and Penicillin-Streptomycin. Cells attached overnight and then culture media was aspirated and replaced with media containing either 100 uM or 250 uM of Peptide I, Peptide II, or Peptide III. Cells were cultured for 7 days with treatment with renewal of treatment medium every other day with the exception of weekends. On day 7, cells were stained with tetramethylrhodamine ethyl ester (TMRE) and imaged for mitochondrial activity following the protocol in the TMRE-Mitochondrial Membrane Potential Assay Kit (ab113852, Abcam). The active mitochondria (mean intensity normalized to control) were determined and are shown below, in Table 5.

[8] = test system: transforming growth factor alpha (TGFa); experiment: Transforming growth factor alpha generated by reconstructed human epidermis (LEGENDplex Human Growth Factor Panel); conditions: 250 μM, 7 days, control = 1.00
Procedure: as §1

| Substance | Autophagic Vacuoles Presence (Compared to Control) ([1]; 100 μM) | Autophagic Vacuoles Presence (Compared to Control) ([1]; 250 μM) | HGF/μg Protein [2] | Holoclone count ([3]; 0.2 mM) | Holoclone count ([3]; 0.4 mM) | Pg IL-6/μg Protein ([4]; first line of each peptide) | Pg IL-6/μg Protein ([4]; second line of each peptide) | EGF/μg Protein [5] | Pg IL-8/μg Protein ([6]; first line of each peptide) | Pg IL-8/μg Protein ([6]; second line of each peptide) | Active Mitochondria (Mean Intensity Normalized to Control) [7] | TGFa/μg Protein [8] |
| --- | --- | --- | --- | --- | --- | --- | --- | --- | --- | --- | --- | --- |
| KVPPLLY [Peptide III] | ↑ | ↔ | 1.01 ± 0.17 | 27.40 ± 6.13 | 36.50 ± 5.97 | 291.73 ± 61.03 Pg/μg Protein | 333.61 ± 38.37 Pg/μg Protein | 1.79 ± 0.28 | 31.14 ± 22.26 Pg/μg Protein | 32.58 ± 4.06 Pg/μg Protein | 0.97 ± 0.15 | 1.93 ± 0.60 |
| TWLPLPR [Peptide I] | ↑ | ↑ | 0.98 ± 0.20 |  |  | 154.52 ± 32.33 Pg/μg Protein | 126.97 ± 29.10 Pg/μg Protein | 1.58 ± 0.17 | 22.72 ± 6.45 Pg/μg Protein | 42.71 ± 11.29 Pg/μg Protein | 1.158 ± 0.17 | 1.37 ± 0.23 |
| YVLLPSPK [Peptide II] | ↑ | ↑ | 1.28 ± 0.25 | 27.60 ± 7.59 | 34.30 ± 8.85 | 265.86 ± 58.08 Pg/μg Protein | 257.53 ± 38.82 Pg/μg Protein | 1.23 ± 0.16 | 20.36 ± 5.39 Pg/μg Protein | 35.68 ± 11.37 Pg/μg Protein | 1.00 ± 0.19 | 1.56 ± 0.29 |
